Laboratory results reported in publication PMC6691587, “New CXCR1/CXCR2 inhibitors represent an effective treatment for kidney or head and neck cancers sensitive or refractory to reference treatments” (Theranostics, 2019).

Columns and labels:
Type in all cases: cell-based, human
CAL27 = experiment: XTT cell viability assay, CAL27 HNSCC cells; settings: Homo sapiens, CAL-27; XTT assay, 48 h; SD 10%; mean of three experiments; read-out: IC50 27 (HNSCC)
Method: (§1) Fifty microliters of sodium 3′-[1-phenylaminocarbonyl)-3,4-tetrazolium]-bis(4-methoxy-6-nitro) benzene sulfonic acid hydrate (XTT) reagent was added to each well. The assay is based on the cleavage of the yellow tetrazolium salt XTT to form an orange formazan dye by metabolically active cells. This bio-reduction occurs in viable cells only and is related to NAD(P)H production through glycolysis. Therefore, the amount of formazan dye measured at 490 nm directly correlated with the number of metabolically active cells reflecting cell proliferation and viability. Each assay was performed in quadruplicate.

CAL33 = experiment: XTT cell viability assay, CAL33 HNSCC cells; settings: Homo sapiens, CAL-33; XTT assay, 48 h; SD 10%; mean of three experiments; read-out: IC50 33 (HNSCC)
Method: as §1

A498 = experiment: XTT cell viability assay, A498 RCC cells; settings: Homo sapiens, A498; XTT assay, 48 h; SD 10%; mean of three experiments; read-out: IC50 498 (Kidney RCC)
Method: as §1

RCC4 = experiment: XTT cell viability assay, RCC4 RCC cells; settings: Homo sapiens, RCC4, 48 h, SD 10%, mean of three experiments, read-out: IC50 R4 (Kidney RCC)
Method: as §1

786-O = experiment: XTT cell viability assay, 786-O RCC cells; settings: Homo sapiens, 786-0; XTT assay, 48 h; SD 10%; mean of three experiments; read-out: IC50 786 (Kidney RCC)
Method: as §1

MDA-MD-231 = experiment: XTT cell viability assay, breast cancer cells; settings: Homo sapiens, 48 h, SD 10%, mean of three experiments
Method: as §1

OCI-AML2 = experiment: XTT cell viability assay, OCI-AML2 AML cells; settings: Homo sapiens, OCI-AML2, 48 h, SD 10%, mean of three experiments, read-out: IC50 L2 (AML)
Method: as §1

OCI-AML3 = experiment: XTT cell viability assay, OCI-AML3 AML cells; settings: Homo sapiens, OCI-AML-3, 48 h, SD 10%, mean of three experiments, read-out: IC50 L3 (AML)
Method: as §1

Molm13 = experiment: XTT cell viability assay, Molm13 AML cells; settings: Homo sapiens, MOLM-13, 48 h, SD 10%, mean of three experiments
Method: as §1

Molm14 = experiment: XTT cell viability assay, Molm14 AML cells; settings: Homo sapiens, MOLM-14, 48 h, SD 10%, mean of three experiments
Method: as §1

SKM1 = experiment: XTT cell viability assay, SKM1 MDS cells; settings: Homo sapiens, SKM-1, 48 h, SD 10%, mean of three experiments, read-out: IC50 SK (MDS)
Method: as §1

K562 = experiment: XTT cell viability assay, K562 CML cells; settings: Homo sapiens, K562, 48 h, SD 10%, mean of three experiments
Method: as §1

SMILES	IC50 (CAL27)	IC50 (CAL33)	IC50 (A498)	IC50 (RCC4)	IC50 (786-O)	IC50 (MDA-MD-231)	IC50 (OCI-AML2)	IC50 (OCI-AML3)	IC50 (Molm13)	IC50 (Molm14)	IC50 (SKM1)	IC50 (K562)
Cc1ccc2nc(NC(=O)Nc3cccc(Cl)c3)sc2c1 [C26]	> 25 µM	> 25 µM	> 25 µM	> 25 µM	> 25 µM	> 25 µM	> 25 µM	> 25 µM	> 25 µM	> 25 µM	> 25 µM	> 25 µM
O=C(Nc1ccccc1Cl)Nc1ccc(Cl)cc1Cl [C4]	> 25 µM	> 25 µM	> 25 µM	> 25 µM	> 25 µM	> 25 µM	> 25 µM	> 25 µM	> 25 µM	> 25 µM	> 25 µM	> 25 µM
CCOc1ccc2nc(NC(=O)Nc3ccc(OC)cc3)sc2c1 [C33]	> 25 µM	> 25 µM	> 25 µM	> 25 µM	> 25 µM	> 25 µM	> 25 µM	> 25 µM	> 25 µM	25 µM	> 25 µM	> 25 µM
Cc1ccc(NC(=O)Nc2ccccc2Cl)cc1 [C1]	> 25 µM	> 25 µM	> 25 µM	> 25 µM	> 25 µM	> 25 µM	> 25 µM	> 25 µM	> 25 µM	> 25 µM	> 25 µM	> 25 µM
CCOc1ccc2nc(NC(=O)Nc3cccc(C)c3)sc2c1 [C31]	> 25 µM	> 25 µM	> 25 µM	> 25 µM	> 25 µM	> 25 µM	25 µM	> 25 µM	> 25 µM	25 µM	> 25 µM	25 µM
Cc1cccc(NC(=O)Nc2nc3ccc(C)cc3s2)c1 [C27]	> 25 µM	> 25 µM	> 25 µM	> 25 µM	> 25 µM	> 25 µM	> 25 µM	> 25 µM	> 25 µM	> 25 µM	> 25 µM	> 25 µM
O=C(Nc1nc2ccccc2s1)Nc1ccccc1Cl [C21]	> 25 µM	> 25 µM	> 25 µM	25 µM	> 25 µM	> 25 µM	10 µM	> 25 µM	> 25 µM	> 25 µM	> 25 µM	> 25 µM
CCOc1ccc2nc(NC(=O)Nc3ccc(C)cc3)sc2c1 [C32]	> 25 µM	> 25 µM	> 25 µM	> 25 µM	> 25 µM	> 25 µM	> 25 µM	> 25 µM	> 25 µM	> 25 µM	> 25 µM	> 25 µM
O=C(Nc1ccc(Cl)cc1)Nc1ccc(Cl)cc1 [C10]	> 25 µM	> 25 µM	> 25 µM	> 25 µM	> 25 µM	> 25 µM	> 25 µM	> 25 µM	> 25 µM	> 25 µM	> 25 µM	> 25 µM
O=C(Nc1ccccc1)Nc1nc2ccccc2[nH]1 [C13]	10 µM	10 µM	10 µM	25 µM	20 µM	12 µM	18 µM	25 µM	25 µM	20 µM	25 µM	10 µM
S=C(Nc1ccccc1)Nc1ccc(Cl)cc1Cl [C8]	> 25 µM	> 25 µM	> 25 µM	> 25 µM	> 25 µM	> 25 µM	> 25 µM	> 25 µM	> 25 µM	> 25 µM	> 25 µM	> 25 µM
